Assay results as given in patent US6096779A, “Amorphous piretanide, piretanide polymorphs, process for their preparation and their use” (Hoechst Pharmaceuticals & Chemicals K.K., priority 1995, dated 2000).
In brackets after ≈: the same amount, converted by molar mass. Like-named read-outs stand apart in the source and are kept apart here.

Assays:
[1] = cited from earlier work; for solubility in a buffer at a pH value of 3: pH 3, 37° C.; for solubility at a pH value of 6.8: pH 6.8, 37° C.
[2] = Solubility in buffers at various pH values by dissolution tester, absorbance at 275 nm, 37° C.; format: physicochemical; settings: for solubility in a buffer at a pH value of 1: pH 1, potassium chloride-hydrochloric acid buffer
Protocol: The amorphous piretanide obtained as described in Example 1 was analyzed for solubility in a buffer at various pH values by means of a dissolution tester, using piretanide form A as a control.
A sufficient amount of the amorphous piretanide to ensure supersaturation was added to 500 ml each of the buffers at various pH values as indicated below, and about 10 ml of a solution was sampled at appropriate intervals and filtered using a 0.45 μm filter. About 5 ml of the initial solution was discarded and the remainder was used as a sample solution and, if required, diluted with the same buffer. Solubility was determined by absorbance at 275 nm.
Buffer: pH 1 Potassium chloride-hydrochloric acid system
pH 3 Sodium chloride-glycine-hydrochloric acid system
pH 6.8 JP XII, second fluid
Solution temperature: 37° C.
The piretanide polymorph obtained as described in Example 6 was analyzed for solubility in a buffer at various pH values by means of a dissolution tester, using piretanide form A as a control.
A sufficient amount of the amorphous piretanide to ensure supersaturation was added to 500 ml each of the buffers at various pH values as indicated below, and about 10 ml of a solution was sampled at appropriate intervals and filtered using a 0.45 μm filter. About 5 ml of the initial solution was discarded and the remainder was used as a sample solution and, if required, diluted with the same buffer, if necessary, solubility was determined by absorbance at 275 nm.

[3] = as above; format: physicochemical; settings: pH 1, 37° C., vs piretanide form B
[4] = pH 3, sodium chloride-glycine-hydrochloric acid buffer

SMILES | solubility in a buffer at a pH value of 1 ([1]; pH 1, 37° C., background) [mg/100 ml] | solubility in a buffer at a pH value of 3 ([1]; background) [mg/100 ml] | solubility at a pH value of 6.8 ([1]; background) [mg/100 ml] | water solubility ([1]; water, 20° C.) [mg/100 ml] | solubility ([2]; jp xii second fluid, pH 6.8, pH 6.8, JP XII second fluid, read-out: solubility in a buffer at a pH value of 6.8 (control, unit as printed)) [µg/mL] | solubility in a buffer at a pH value of 1 [2] [mg/100 ml] | solubility in a buffer at a pH value of 3 [2, 4] [mg/100 ml] | solubility in a buffer at a pH value of 6.8 ([2]; pH 6.8, JP XII second fluid) [mg/100 ml] | solubility ([2]; jp xii second fluid, pH 6.8, pH 6.8, JP XII second fluid, read-out: solubility in a buffer at a pH value of 6.8) [µg/mL] | solubility ([2]; nacl-glycine-hcl buffer, pH 3, aqueous buffer, pH 3, sodium chloride-glycine-hydrochloric acid buffer, read-out: solubility in a buffer at a pH value of 3) [µg/mL] | solubility compared with piretanide form B, pH 1 (in words) [3]
NS(=O)(=O)c1cc(C(=O)O)cc(N2CCCC2)c1Oc1ccccc1 [piretanide form A, 4-phenoxy-3-(1-pyrrolidinyl)-5-sulfamoyl-benzoicacid] | 7.5 | 4.2 | 193.8 | 7.9 | 1940 (≈ 5.35 mM) | 7.5 | 4.2 | – | – | – | –
NS(=O)(=O)c1cc(C(=O)O)cc(N2CCCC2)c1Oc1ccccc1 [amorphous piretanide, 4-phenoxy-3-(1-pyrrolidinyl)-5-sulfamoyl-benzoicacid] | – | – | – | – | – | 15.2 | 6.5 | 901.3 | – | – | –
NS(=O)(=O)c1cc(C(=O)O)cc(N2CCCC2)c1Oc1ccccc1 [piretanide form B, 4-phenoxy-3-(1-pyrrolidinyl)-5-sulfamoyl-benzoicacid] | – | 6.4 | 195.4 | – | – | – | – | – | – | – | –
NS(=O)(=O)c1cc(C(=O)O)cc(N2CCCC2)c1Oc1ccccc1 [piretanide polymorph, 4-phenoxy-3-(1-pyrrolidinyl)-5-sulfamoyl-benzoicacid] | – | – | – | – | – | 12.2 | – | – | 9270 (≈ 25.6 mM) | 67 (≈ 0.185 mM) | approximately similar solubility to that of piretanide form B
